Experimental findings from patent US12389907B2, “Compounds with nematicidal activity to pinewood nematode Bursaphelenchus xylophilus” (KOREA ADVANCED INSTITUTE OF SCIENCE AND TECHNOLOGY, priority 2023, dated 2025) are described below.

This test concerns pinewood nematode (Bursaphelenchus xylophilus). The test is described as follows: Nematode screening: mortality of pinewood nematode in 96-well plate, propidium iodide staining. To be noted: compound dissolved in polar solvent DMSO, nematode treated with the solution. The class given is cell-based. As for the experimental part: Nematode Screening Method and Test Results
(1) A pinewood nematode sample was prepared so that 130 to 150 nematodes were present per 40 μL.
(2) The pinewood nematode sample was dispensed into a 96-well plate by 40 μL. Triplicates were prepared for each sample.
(3) Each compound was dispensed into each well containing the pinewood nematode sample. The tested compounds were (±)-orthosporin and 6,8-dihydroxy-3-methylisocoumarin, and each compound was dissolved in 1% DMSO solvent at a concentration of 20 μM. The chemical formulas of the compounds are illustrated in FIG. 1.
(4) After 120 hours, 20 μL of 50 μM propidium iodide was dispensed into each well containing the sample, and then shaking incubation was performed at RT for 15 minutes.
(5) The mortality rate was evaluated by counting only dead pinewood nematodes stained red in the total number of nematodes using a fluorescence microscope.

On to `CC(O)Cc1cc2cc(O)cc(O)c2c(=O)o1` (racemic) [Chemical Formula 3, 6,8-dihydroxy-3-(2-hydroxypropyl)-1H-isochromen-1-one], for which the “effect of killing the nematode” value is “have the effect of killing the nematode”.

On to `Cc1cc2cc(O)cc(O)c2c(=O)o1` [Chemical Formula 2, 6,8-dihydroxy-3-methyl-1H-isochromen-1-one], for which the “effect of killing the nematode” value is on record as “have the effect of killing the nematode”.
